Among the test systems are Hs-578T; SN12C; MDA-MB-231; HL-60; EKVX; SK-OV-3; MDA-N; SNB-19; NCI/ADR-RES; UACC-62; M14; BT-549; NCI-H460; U-251; HOP-62; SF-539; CCRF-CEM; RXF 393; SK-MEL-28; LOX IMVI.
Experiment in all cases: NCI-60 cell line screen, 48 h

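Values below derive from 48-hour exposures of cells grown in 96-well plates, with endpoints linearly interpolated between the two concentrations bracketing the appropriate inhibition level. Abbreviation: GI50, concentration required for 50% inhibition of growth.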 Calls of active or inactive are those of the source. Rule as the data show it: active = GI50 up to about 1.1 µM and inactive = higher.

Regarding `Cc1cccc2nc(-c3ccccc3)cc(=O)n12`, the GI50 was 12.5 µM (inactive) with Hs-578T; 69.2 µM (inactive) in the assay with SN12C; > 100 µM (inactive) in the assay with MDA-MB-231; > 100 µM (inactive) in the assay with HL-60; 7.26 µM (inactive) in the assay with EKVX; 82.8 µM (inactive) in the assay on SK-OV-3. For the same molecule, the GI50 is > 100 µM (inactive) in the assay with MDA-N; > 100 µM (inactive) in the assay with SNB-19; 44.9 µM (inactive) with NCI/ADR-RES; 44.1 µM (inactive) in the assay with UACC-62; > 100 µM (inactive) in the assay with M14; 85.5 µM (inactive) with BT-549. Also, the GI50 is > 100 µM (inactive) with NCI-H460; > 100 µM (inactive) in the assay with U-251; > 100 µM (inactive) in the assay with HOP-62; > 100 µM (inactive) in the assay on SF-539; > 100 µM (inactive) in the assay with CCRF-CEM; 51.8 µM (inactive) in the assay on RXF 393. Further, the GI50 in the assay with SK-MEL-28 was > 100 µM (inactive).

Take `O=C(NNC(=S)Nc1ccc(Cl)cc1)c1cc(-c2ccccc2)nc2ccccc12`: the GI50 was 11.7 µM (inactive) with Hs-578T; 4.97 µM (inactive) in the assay with SN12C; 12.2 µM (inactive) in the assay on MDA-MB-231; 7.82 µM (inactive) in the assay with SK-OV-3; 3.25 µM (inactive) in the assay on MDA-N; 6.89 µM (inactive) in the assay with SNB-19. Besides, the GI50 in the assay on NCI/ADR-RES was 5.27 µM (inactive); in the assay with UACC-62, 2.9 µM (inactive); in the assay on M14 it was 4.97 µM (inactive); in the assay with BT-549, 4.6 µM (inactive); with NCI-H460, 6.22 µM (inactive); in the assay on U-251, 3.51 µM (inactive). For the same molecule, the GI50 in the assay on HOP-62 is 6.12 µM (inactive); in the assay on SF-539, 3.69 µM (inactive); in the assay with CCRF-CEM, 1.66 µM (inactive); with RXF 393, 7.93 µM (inactive); in the assay with SK-MEL-28, 3.31 µM (inactive).

Regarding `Cc1cc(O)c2c(c1)C(=O)C=C(Br)C2=O`, the GI50 is 13 µM (inactive) with Hs-578T; 16.4 µM (inactive) in the assay with SN12C; 16.9 µM (inactive) in the assay with MDA-MB-231; 0.724 µM (active) with HL-60; 24.8 µM (inactive) in the assay on EKVX; > 100 µM (inactive) with SK-OV-3. Moreover, the GI50 in the assay on MDA-N is 15.3 µM (inactive); in the assay with SNB-19 it was > 65.8 µM (inactive); in the assay on NCI/ADR-RES, 19.2 µM (inactive); with LOX IMVI it was 12.8 µM (inactive); with UACC-62, 16.6 µM (inactive); in the assay on M14 it was 15.8 µM (inactive). Also, the GI50 with BT-549 was 16.9 µM (inactive); in the assay with NCI-H460 it was 19.9 µM (inactive); in the assay on U-251 it was 29.7 µM (inactive); with HOP-62 it was > 63.5 µM (inactive); with SF-539 it was 16 µM (inactive); with CCRF-CEM, 0.255 µM (active). Moreover, in the assay with SK-MEL-28, the GI50 is 15.4 µM (inactive).

Take `CCN(CC(O)COc1ccc2c(c1)[n+]([O-])nc(N)[n+]2[O-])C(C)=O` (stereo unspecified): the GI50 in the assay on Hs-578T was 63 µM (inactive); in the assay on SN12C it was > 100 µM (inactive); in the assay on MDA-MB-231 it was > 100 µM (inactive); in the assay with HL-60, > 100 µM (inactive); in the assay with EKVX, > 100 µM (inactive); with SK-OV-3 it was > 100 µM (inactive). The GI50 in the assay on MDA-N is > 100 µM (inactive); in the assay on SNB-19, > 100 µM (inactive); with NCI/ADR-RES, > 100 µM (inactive); in the assay on LOX IMVI, 76.6 µM (inactive); in the assay with UACC-62, 49.7 µM (inactive); in the assay with M14, > 100 µM (inactive). Further, the GI50 in the assay with BT-549 was > 100 µM (inactive); in the assay with NCI-H460 it was > 100 µM (inactive); in the assay with U-251 it was > 100 µM (inactive); in the assay on HOP-62, > 100 µM (inactive); with SF-539, > 100 µM (inactive); with CCRF-CEM, 72.4 µM (inactive). Moreover, the GI50 with SK-MEL-28 is > 100 µM (inactive).

Turning to `CN1C(=O)C(=CNc2ccccc2Cl)C(=O)N(C)C1=O`, the GI50 in the assay with Hs-578T was > 100 µM (inactive); with SN12C it was > 100 µM (inactive); in the assay with MDA-MB-231, > 100 µM (inactive); with EKVX it was > 100 µM (inactive); in the assay with SK-OV-3, 40.8 µM (inactive); with MDA-N it was > 100 µM (inactive). Also, the GI50 in the assay with SNB-19 was 23.8 µM (inactive); with NCI/ADR-RES it was > 100 µM (inactive); in the assay on LOX IMVI it was 15.3 µM (inactive); in the assay on UACC-62, > 100 µM (inactive); with M14 it was 21.9 µM (inactive); in the assay with BT-549 it was > 100 µM (inactive). The GI50 in the assay on NCI-H460 is 15.5 µM (inactive); in the assay on U-251 it was > 100 µM (inactive); in the assay on HOP-62, 19.8 µM (inactive); with SF-539 it was 20.6 µM (inactive); in the assay with CCRF-CEM it was 14.6 µM (inactive); in the assay on RXF 393 it was 15.1 µM (inactive).

In the case of `COc1ccc(OC)c2sc(N3C(=O)/C(=C/Cc4ccco4)N=C3c3ccccc3)nc12`, the GI50 in the assay with Hs-578T is 42.2 µM (inactive); in the assay on SN12C it was 33.3 µM (inactive); in the assay with MDA-MB-231 it was > 100 µM (inactive); in the assay on HL-60, 18.1 µM (inactive); in the assay with EKVX it was 66.8 µM (inactive); in the assay on SK-OV-3, 83.4 µM (inactive). The GI50 in the assay on MDA-N is 19.6 µM (inactive); in the assay with SNB-19, 47.3 µM (inactive); with NCI/ADR-RES, 63.1 µM (inactive); in the assay with LOX IMVI, 25.1 µM (inactive); in the assay with UACC-62, 21.8 µM (inactive); with M14, 37.6 µM (inactive). Besides, the GI50 in the assay on BT-549 is 50.2 µM (inactive); in the assay on NCI-H460, 50.1 µM (inactive); in the assay with U-251, 22.5 µM (inactive); in the assay on HOP-62, 43 µM (inactive); with SF-539, 53.5 µM (inactive); in the assay on CCRF-CEM, 11.7 µM (inactive). Besides, the GI50 in the assay on SK-MEL-28 is 79.1 µM (inactive).

For the molecule `COC(=O)c1ccc(NCC2=CC(=O)C=CC2=O)cc1O`, the GI50 in the assay on Hs-578T is 48.6 µM (inactive); in the assay on SN12C, 21.5 µM (inactive); in the assay with MDA-MB-231 it was 16.8 µM (inactive); with EKVX it was 17.7 µM (inactive); in the assay on SK-OV-3, 20.4 µM (inactive); with MDA-N it was 16.4 µM (inactive). Further, the GI50 is 19.7 µM (inactive) in the assay on SNB-19; 18.1 µM (inactive) with NCI/ADR-RES; 16.8 µM (inactive) in the assay with LOX IMVI; 15.7 µM (inactive) in the assay on UACC-62; 20.9 µM (inactive) in the assay on M14; 11.4 µM (inactive) in the assay with BT-549. Besides, the GI50 in the assay on NCI-H460 is 21 µM (inactive); in the assay on U-251 it was 36.5 µM (inactive); in the assay with HOP-62, 18.1 µM (inactive); in the assay on SF-539, 13.5 µM (inactive); in the assay with CCRF-CEM, 5.32 µM (inactive); in the assay with RXF 393, 19.9 µM (inactive). Also, the GI50 with SK-MEL-28 was 46 µM (inactive).

Consider `CCOC(=O)/C=C/CCO[Si](C)(C)C(C)(C)C`, for which the GI50 with Hs-578T, in the assay with SN12C, in the assay on MDA-MB-231, with EKVX, with SK-OV-3 and in the assay with MDA-N was > 100 µM (inactive) each time. For the same molecule, the GI50 in the assay with SNB-19 is > 100 µM (inactive); with NCI/ADR-RES, > 100 µM (inactive); with LOX IMVI, 50.5 µM (inactive); in the assay with UACC-62, > 100 µM (inactive); with BT-549, > 100 µM (inactive); with NCI-H460, > 100 µM (inactive). For the same molecule, the GI50 with U-251, in the assay on HOP-62, with SF-539, in the assay on CCRF-CEM, in the assay on RXF 393 and in the assay on SK-MEL-28 was > 100 µM (inactive) throughout.

As for `C/C(=C\c1ccccn1)c1ccccn1`, the GI50 with Hs-578T, in the assay with MDA-MB-231, with EKVX, with SK-OV-3, in the assay on MDA-N and in the assay on SNB-19 was > 100 µM (inactive) throughout. The GI50 with NCI/ADR-RES, with UACC-62, with M14, in the assay on BT-549, in the assay on NCI-H460 and in the assay with U-251 was > 100 µM (inactive) in each case. Also, the GI50 with HOP-62, with RXF 393 and in the assay on SK-MEL-28 was > 100 µM (inactive) in each case.

With `C=C1CC(C)(COc2ccc3c(C)c(Cl)c(=O)oc3c2)OC1=O` (stereo unspecified), the GI50 was 3.11 µM (inactive) with Hs-578T; 5.07 µM (inactive) with SN12C; 3.53 µM (inactive) in the assay with MDA-MB-231; 0.12 µM (active) with HL-60; 5.9 µM (inactive) with EKVX; 4.88 µM (inactive) in the assay on SK-OV-3. The GI50 in the assay on MDA-N is 0.762 µM (active); in the assay on SNB-19, 12.9 µM (inactive); in the assay on NCI/ADR-RES it was 2.35 µM (inactive); in the assay with LOX IMVI, 0.964 µM (active); in the assay on UACC-62 it was 1.39 µM (inactive); in the assay with M14, 1.26 µM (inactive). For the same molecule, the GI50 with BT-549 was 1.31 µM (inactive); in the assay on NCI-H460, 6.97 µM (inactive); in the assay on U-251 it was 7.82 µM (inactive); in the assay with HOP-62 it was 10.3 µM (inactive); in the assay with SF-539 it was 3.61 µM (inactive); in the assay on CCRF-CEM, 0.331 µM (active). The GI50 in the assay on SK-MEL-28 was 2.42 µM (inactive).

Take `COc1ccc(C2SCC(=O)N2c2ccc(-n3c(-c4ccccc4)nc4ccccc4c3=O)cc2)cc1OC` (stereo unspecified): the GI50 in the assay on Hs-578T was 99.8 µM (inactive); with SN12C it was > 100 µM (inactive); with MDA-MB-231 it was > 100 µM (inactive); in the assay on HL-60, > 100 µM (inactive); in the assay with EKVX it was > 100 µM (inactive); with SK-OV-3 it was > 100 µM (inactive). Also, the GI50 is > 100 µM (inactive) with MDA-N; > 100 µM (inactive) in the assay with SNB-19; > 100 µM (inactive) in the assay on NCI/ADR-RES; > 100 µM (inactive) in the assay on LOX IMVI; 62.1 µM (inactive) in the assay on UACC-62; > 100 µM (inactive) in the assay with M14. For the same molecule, the GI50 in the assay with BT-549, in the assay with NCI-H460, with U-251, with HOP-62, in the assay on SF-539 and in the assay on CCRF-CEM was > 100 µM (inactive) throughout. The GI50 in the assay with SK-MEL-28 was > 100 µM (inactive).

For the origin of these results see ChEMBL document CHEMBL1201862, “PubChem BioAssay data set” (2004).
